From patent US20260265279A1, “RHO-ASSOCIATED PROTEIN KINASE INHIBITOR AND PREPARATION AND USE THEREOF” (Shanghai Zhimeng Biopharma, Inc, priority 2022, published 2026) come the findings set out here.

One data set addresses T1, ROCK2 (Homo sapiens, UniProt O75116).
T1 construct: purchased Invitrogen PV3759
Nature of the data set: Kinase IC50 assay, HTRF kinEASE STK S2 kit, ROCK2. To be noted: ATP 1 μM, 2.5 ng/well enzyme, 120 min. Type of data set: biochemical. On the procedure:
(§1) Kinase IC50 assay was performed using the kinase assay kit HTRF kinEASE STK S2 kit (Cat #62ST2PEC, Cisbio). Kinases ROCK1 (Cat #PV3691) and ROCK2 (Cat #PV3759) were purchased from Invitrogen.
(§2) The working solution required for the assay was prepared with the appropriate reagents as described in the kinase assay kit instructions:
(§3) 1 mL of 1× Kinase Buffer contains 200 μL 5× Enzyme buffer, 5 μL 1M MgCl2 (Cat.M8266, Sigma), 1 μL 1M DTT (Cat.D5545, Sigma), 794 μL ddH2O.
(§4) The specific concentrations of STK-biotin substrate and ATP are shown in Table A. STK-biotin substrate and ATP were diluted with 1× kinase buffer to 2.5 times of the reaction concentration.
(§5) Concentrations of ROCK1/ROCK2 are shown in Table A. 5×ROCK1/ROCK2 Kinase working solution was prepared with 1× Kinase Buffer.
(§6) See Table A for the concentrations of Streptavidin-XL665 and STK Antibody-Cryptate in the reaction. 2× Streptavidin-XL665 and STK Antibody-Cryptate Working Solutions were prepared 5 minutes prior to the end of the kinase reaction using Detection Buffer from the kit.
(§7) A 100 μM compound mother solution was prepared using 1× kinase buffer containing 2.5% DMSO, and the mother solution was diluted 4-fold stepwise with the above DMSO-containing kinase buffer to obtain nine different concentrations of the compound solutions to be tested. In addition to the test compound wells, positive control wells (containing all reagents except the compounds) and negative control wells (containing all reagents except the compounds and kinase) were set up. 4 μL of the test compound solution was added to all reaction wells except the control wells and 4 μL of 2.5% DMSO solution was added to the control wells. Then 4 μL of previously prepared substrate and ATP working solution were added to all wells and mix well. Then, 2 μL/well of 5×ROCK1/ROCK2 kinase working solution (containing 2.5 ng ROCK1/ROCK2 kinase) was added to all reaction wells except negative control wells, and the negative control wells were made up to volume with 2 μL of 1× kinase buffer. Mix well, seal with plastic film and incubate at room temperature for 2 hours. Start preparing the assay solution 5 minutes before the end of the kinase reaction. After the end of the kinase reaction, 10 μL of prepared Streptavidin-XL665 and STK Antibody-Cryptate working solution were added to all reaction wells, the plates were sealed and mixed well, and then incubated at room temperature for 1 hour. Finally, the fluorescence signal was detected by SpectraMax i3x Multi-Mode Reader (Molecular Devices) (excitation wavelength is 320 nm, emission wavelength is 665 nm and 615 nm).
(§8) The inhibition rate in each well was calculated from the fluorescence intensity values of each well:
(§9) ER Emission Ratio, Emission light ratio=fluorescence intensity at 665 nm/fluorescence intensity at 615 nm;
(§10) ERcompound, ER of test compound wells; ERvehicle, ER of solvent (positive) control wells, ERblank, ER of blank (negative) control wells.
(§11) The graphs were plotted using the software GraphPad Prism 6.0, while the half inhibitory concentration (IC50) of each compound to be tested was obtained by fitting with Prism 6.0.

The target in another data set is T2, ROCK1 (Homo sapiens, UniProt Q13464).
T2 construct: purchased Invitrogen PV3691
T2 sequence (Q13464 1-535 limits assumed): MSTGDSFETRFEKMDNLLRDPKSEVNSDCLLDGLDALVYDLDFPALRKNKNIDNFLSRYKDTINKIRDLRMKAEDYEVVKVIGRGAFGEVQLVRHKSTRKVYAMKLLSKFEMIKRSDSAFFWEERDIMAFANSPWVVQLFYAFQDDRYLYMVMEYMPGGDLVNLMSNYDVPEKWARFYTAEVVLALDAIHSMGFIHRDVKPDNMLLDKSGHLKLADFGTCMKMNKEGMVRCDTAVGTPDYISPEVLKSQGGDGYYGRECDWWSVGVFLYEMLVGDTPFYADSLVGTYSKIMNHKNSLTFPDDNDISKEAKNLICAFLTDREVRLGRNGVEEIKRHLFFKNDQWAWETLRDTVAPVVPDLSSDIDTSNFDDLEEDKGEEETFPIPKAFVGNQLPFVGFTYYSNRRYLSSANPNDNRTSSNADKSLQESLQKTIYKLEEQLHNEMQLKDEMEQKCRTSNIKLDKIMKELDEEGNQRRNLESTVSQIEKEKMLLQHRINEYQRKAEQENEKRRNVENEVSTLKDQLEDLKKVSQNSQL
Kind of data set: Kinase IC50 assay, HTRF kinEASE STK S2 kit, ROCK1. Type of data set: biochemical. To be noted: ATP 1.5 μM, 2.5 ng/well enzyme, 120 min. The procedure:
as §1, §2, §3, §4, §5, §6, §7, §8, §9, §10, §11
Background: TR-FRET usually uses a lanthanide donor and a delayed reading to cut background.

Data set [1] in a line: Pharmacokinetic study in male SD rats. Type of data set: in vivo. Conditions: rat, plasma. On the procedure:
1) Purpose of the Study: Obtain the Pharmacokinetic Characterization of the Compounds of the Present Invention in Male SD Rats
For each compound, 6 healthy male SD rats (weight range 200-250 g) was taken and divided into 2 groups of 3 each; Group 1 was administered intravenously in a single dose (see Table 2 for dosage) and Group 2 was administered orally in a single gavage (see Table 2 for dosage, fasted overnight before administration). Blood was collected by jugular vein or cardiac puncture at 0.083 (group 1 only), 0.25, 0.5, 1, 2, 4, 6 (group 2 only), 8 and 24 h after drug administration, respectively, and at least 0.2 mL of whole blood was collected from each sample into EDTA-K2 anticoagulant tubes, and the samples were mixed and placed on wet ice after sample collection, and then centrifuged to separate plasma (6,800 g, 6 min, 2-8° C.) at 1 h. The plasma samples were stored in ultra-low temperature refrigerators before analysis.
Experimental results: The pharmacokinetic parameters after administration were calculated from the blood concentration data obtained by LC-MS/MS assay using the non-compartmental model of WinNonlin® 7.0 software (Pharsight, Inc., USA) and are shown in the table below: […]

The mark [2] stands for this setting: po, gavage 10 mg/kg, fasted overnight.

T1 sequence (O75116 5-554 limits assumed): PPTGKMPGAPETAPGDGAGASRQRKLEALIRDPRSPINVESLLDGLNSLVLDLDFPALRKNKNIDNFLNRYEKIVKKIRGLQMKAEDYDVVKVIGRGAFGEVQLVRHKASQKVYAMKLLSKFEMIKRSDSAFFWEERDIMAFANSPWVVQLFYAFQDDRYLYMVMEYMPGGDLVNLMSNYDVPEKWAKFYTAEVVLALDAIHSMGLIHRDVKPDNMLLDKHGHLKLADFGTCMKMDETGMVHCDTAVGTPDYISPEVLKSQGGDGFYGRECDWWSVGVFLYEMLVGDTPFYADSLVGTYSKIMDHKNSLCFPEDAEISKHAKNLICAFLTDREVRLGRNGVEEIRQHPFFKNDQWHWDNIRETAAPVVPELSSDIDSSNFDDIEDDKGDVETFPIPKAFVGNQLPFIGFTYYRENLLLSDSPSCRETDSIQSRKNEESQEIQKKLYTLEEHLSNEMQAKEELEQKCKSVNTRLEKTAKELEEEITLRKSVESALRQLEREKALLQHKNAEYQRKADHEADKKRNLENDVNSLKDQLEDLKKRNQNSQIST

For the molecule `Cn1c(C#Cc2nccc(Nc3ccc(-c4cn[nH]c4)cc3)n2)ccc1C(=O)N1CC(F)(F)C1` [Compound A1], the half-maximal inhibitory concentration (IC50) (usually the concentration that inhibits the measured activity by half) against ROCK2 was found to be 0.104 µM. Also, the IC50 against ROCK1 was above 100 µM. Further, in data set [1] (intravenous injection 1 mg/kg), the AUC(0-t) (commonly exposure summed from dosing to a finite time, without extrapolation to infinity) is 1210 ng·h/mL; the highest level (Cmax) was 765 ng/mL; the time to peak (Tmax) (commonly the time from dosing to the highest level) worked out at 0.08 h; the half-life – broadly, how long it takes for the measured level to halve – was 2.05 h. The bioavailability (commonly the share of a dose that reaches the circulation, judged against a reference dose that is usually intravenous) in data set [1] (oral, gavage 10 mg/kg vs intravenous 1 mg/kg) was determined as 11.5%. Besides, in data set [1] (setting [2]), the area under the curve AUC(0-t) came to 1400 ng·h/mL, the peak level (Cmax) was 251 ng/mL, the Tmax is 1.33 h and the half-life was 3.47 h.
Regarding `Cc1cc(C(=O)N2CC(O)C2)n(C)c1C#Cc1ncc(F)c(Nc2cc(F)c(-c3cn[nH]c3)cc2F)n1` [Compound A56], the IC50 is 0.0193 µM at ROCK2 and above 100 µM against ROCK1.
As for `COC1CN(C(=O)c2cc(C)c(C#Cc3ncc(F)c(Nc4cc(F)c(-c5cn[nH]c5)cc4F)n3)n2C)C1` [Compound A57], the IC50 at ROCK2 was 0.0324 µM; at ROCK1, above 100 µM.
